Laboratory results reported in patent US6906097B2, “8-azaprostaglandin analogs as agents for lowering intraocular pressure” (Allergan, Inc., priority 2002, dated 2005).

Key:
hEP1 [1] = molecular target: T1, hEP1 (Homo sapiens, UniProt P34995); experiment: Functional data, human recombinant EP1 receptor stable transfectants; type: cell-based
T1 construct: expressed in transfected cells
T1 sequence (P34995 1-402): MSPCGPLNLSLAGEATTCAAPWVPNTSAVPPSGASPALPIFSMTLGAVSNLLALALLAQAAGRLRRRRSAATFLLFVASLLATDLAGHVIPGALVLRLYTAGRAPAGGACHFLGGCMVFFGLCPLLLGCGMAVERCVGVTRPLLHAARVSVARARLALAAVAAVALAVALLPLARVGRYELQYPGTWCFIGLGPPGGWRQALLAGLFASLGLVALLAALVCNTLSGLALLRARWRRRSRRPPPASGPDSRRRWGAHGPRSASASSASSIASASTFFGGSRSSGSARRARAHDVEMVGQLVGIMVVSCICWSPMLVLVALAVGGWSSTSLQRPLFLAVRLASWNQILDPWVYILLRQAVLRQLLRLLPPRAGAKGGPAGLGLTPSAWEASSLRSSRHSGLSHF
Experimental: (§1) Human Recombinant EP1, EP2, EP3, EP4, FP, TP, IP and DP Receptors: Stable Transfectants
(§2) Plasmids encoding the human EP1, EP2, EP3, EP4, FP, TP, IP and DP receptors were prepared by cloning the respective coding sequences into the eukaryotic expression vector pCEP4 (Invitrogen). The pCEP4 vector contains an Epstein Barr virus (EBV) origin of replication, which permits episomal replication in primate cell lines expressing EBV nuclear antigen (EBNA-1). It also contains a hygromycin resistance gene that is used for eukaryotic selection. The cells employed for stable transfection were human embryonic kidney cells (HEK-293) that were transfected with and express the EBNA-1 protein. These HEK-293-EBNA cells (Invitrogen) were grown in medium containing Geneticin (G418) to maintain expression of the EBNA-1 protein. HEK-293 cells were grown in DMEM with 10% fetal bovine serum (FBS), 250 μg ml^−1 G418 (Life Technologies) and 200 μg ml^−1 gentamicin or penicillin/streptomycin.
(§3) For transfection, the cells were grown to 50-60% confluency on 10 cm plates. The plasmid pCEP4 incorporating cDNA inserts for the respective human prostanoid receptor (20 μg) was added to 500 μl of 250 mM CaCl2. HEPES buffered saline×2 (2×HBS, 280 mM NaCl, 20 mM HEPES acid, 1.5 mM Na2 HPO4, pH 7.05-7.12) was then added dropwise to a total of 500 μl, with continuous vortexing at room temperature. After 30 min, 9 ml DMEM were added to the mixture. The DNA/DMEM/calcium phosphate mixture was then added to the cells, which had been previously rinsed with 10 ml PBS. The cells were then incubated for 5 hr at 37° C. in humidified 95% air/5% CO2. The calcium phosphate solution was then removed and the cells were treated with 10% glycerol in DMEM for 2 min. The glycerol solution was then replaced by DMEM with 10% FBS. The cells were incubated overnight and the medium was replaced by DMEM/10% FBS containing 250 μg ml^−1 G418 and penicillin/streptomycin. The following day hygromycin B was added to a final concentration of 200 μg ml^−1.
(§4) Ten days after transfection, hygromycin B resistant clones were individually selected and transferred to a separate well on a 24 well plate. At confluence each clone was transferred to one well of a 6 well plate, and then expanded in a 10 cm dish. Cells were maintained under continuous hygromycin selection until use.

hEP1 [2] = molecular target: T1, hEP1; experiment: Radioligand binding, hEP1; details: [3H]PGE2 competition
Experimental: as §1
as §2, with “HEK-293 cells were grown in DMEM with 10% fetal bovine serum (FBS), 250 μg ml^−1 G418 (Life Technologies) and 200 μg ml^−1 gentamicin or penicillin/streptomycin.” left out
Radioligand binding studies on plasma membrane fractions prepared for cells stably transfected with the cat or human receptor were performed as follows. […] The pellet was then resuspended in TME buffer to provide a final protein concentration of 1 mg/ml, as determined by Bio-Rad assay. […]
The binding of [^3H](N) PGE2 (specific activity 165 Ci/mmol) was determined in duplicate and in at least 3 separate experiments. […] Competition studies were performed using a final concentration of 2.5 or 5 nM [^3H](N) PGE2 and non-specific binding was determined with 10^−5 M unlabelled PGE2.

hTP = molecular target: T2, hTP (Homo sapiens, UniProt P21731); experiment: Functional data, human recombinant TP receptor stable transfectants; type: cell-based
T2 construct: expressed in transfected cells
T2 sequence (P21731 1-343): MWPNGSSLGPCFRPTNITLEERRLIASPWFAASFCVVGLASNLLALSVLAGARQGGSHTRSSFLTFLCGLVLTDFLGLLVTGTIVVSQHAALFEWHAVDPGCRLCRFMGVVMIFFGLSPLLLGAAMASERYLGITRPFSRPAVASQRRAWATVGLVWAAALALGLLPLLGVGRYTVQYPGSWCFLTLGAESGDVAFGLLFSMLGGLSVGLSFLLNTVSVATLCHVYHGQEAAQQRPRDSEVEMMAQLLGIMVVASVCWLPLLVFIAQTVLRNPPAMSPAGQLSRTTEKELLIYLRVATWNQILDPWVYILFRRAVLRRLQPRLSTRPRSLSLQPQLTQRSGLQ
Experimental: as §1, §2, §3, §4

O=C(O)CCCCCCN1C(=O)CC[C@@H]1CCC(O)Cc1cccc(Cl)c1 (stereo partly drawn) [Example 1, 7-[2S-[3R-Hydroxy-4-(chloro-phenyl)-butyl]-5-oxo-pyrrolidin-1-yl]-heptanoic acid]
EC50 (hEP1 [1]): > 10 µM | IC50 (hEP1 [2]): 5.8 µM | EC50 (hTP): > 10 µM
